Results on four molecules are retold here after patent publication US11622990B2, “VAP polypeptide and use thereof in preparation of drug for targeted diagnosis and treatment of tumor” (FUDAN UNIVERSITY, priority 2016, dated 2023).

The target in data set [1] is T1, GRP78 protein (Homo sapiens, UniProt P11021). The data set is described as follows: VAP mutual competition inhibition test on U87 cells (flow cytometry). The data set is classed as cell-based. Details: saturate the receptor protein on the cell surface; endogenous in cells; host or cells: U87 glioma cells. The following applies: 4° C., unlabeled peptide before fluorescein-labeled peptide. The method, then:
U87 cells were digested by trypsin and transferred to EP tubes, washed with PBS three times to remove trypsin, pretreated at 4° C. for 20 min. The prepared peptide solution (non-fluorescent label) was also placed at 4° C. for low temperature pretreatment, then the peptide solution was mixed with the cells and shocked for 2 h to saturate the receptor protein on the cell surface. Then the fluorescein-labeled peptide solution was added.
For orientation: Flow cytometry measures light scatter and fluorescence of single cells or particles in a stream.

Data set [2] deals with T1, GRP78 protein. As to the kind of experiment: Binding activity of VAP to GRP78 by surface plasmon resonance (Biacore). The following applies: SPR, GRP78 coupled to CM5 chip. (In general: SPR reads the build-up and loss of mass on a sensor chip optically.)
Procedure: Pre-binding analysis was performed by the biacore system, and pH 5.0 was selected as the optimal pH for GRP78 binding to the CMS chip. […] The samples were injected from low to high concentration.
Data set [3] can be described thus: Serum stability of VAP peptides in mouse serum. The data set is classed as in vitro ADME. The following applies: 50% mouse serum, 37° C., after 2 h incubation. The procedure: At 0 and 15 min, 0.5, 1, 2 and 4 h, 100 μL solution was taken out and 20 μL trichloroacetic acid (TCA) was added to precipitate protein of the serum, after standing for 20 min at 4° C., the solution was centrifuged at 12,000 rpm for 10 min. 20 μL supernatant was taken for HPLC analysis.

For another data set, the system named is intracranial U87 tumor. The data set is described as follows: Anti-glioblastoma efficacy test of intracranial glioma (survival). It counts as in vivo, nude mice. The method, then: After the nude mice was anesthetized and fixed with stereotaxic apparatus, intracranial U87 tumor bearing model was established on nude mice by implanted with U87 cells (5×10^5 cells dispersed in 5 μL of PBS buffer for each mouse) in the logarithmic growth phase into the right striatum (0.6 mm in front of […], 1.8 mm in the lateral direction, and 3 mm in depth). The status of naked mice was observed regularly. […] The total dose of DOX was 10 mg/Kg except 2.5 mg/Kg for low dose and 5 mg/kg for medium dose. The ^DVAP dose was the amount of ^DVAP contained in the high dose of ^DVAP-DOX. The survival time of mice were recorded (FIG. 24).

Ends that are not written are not given here.

T1 sequence (P11021 19-654): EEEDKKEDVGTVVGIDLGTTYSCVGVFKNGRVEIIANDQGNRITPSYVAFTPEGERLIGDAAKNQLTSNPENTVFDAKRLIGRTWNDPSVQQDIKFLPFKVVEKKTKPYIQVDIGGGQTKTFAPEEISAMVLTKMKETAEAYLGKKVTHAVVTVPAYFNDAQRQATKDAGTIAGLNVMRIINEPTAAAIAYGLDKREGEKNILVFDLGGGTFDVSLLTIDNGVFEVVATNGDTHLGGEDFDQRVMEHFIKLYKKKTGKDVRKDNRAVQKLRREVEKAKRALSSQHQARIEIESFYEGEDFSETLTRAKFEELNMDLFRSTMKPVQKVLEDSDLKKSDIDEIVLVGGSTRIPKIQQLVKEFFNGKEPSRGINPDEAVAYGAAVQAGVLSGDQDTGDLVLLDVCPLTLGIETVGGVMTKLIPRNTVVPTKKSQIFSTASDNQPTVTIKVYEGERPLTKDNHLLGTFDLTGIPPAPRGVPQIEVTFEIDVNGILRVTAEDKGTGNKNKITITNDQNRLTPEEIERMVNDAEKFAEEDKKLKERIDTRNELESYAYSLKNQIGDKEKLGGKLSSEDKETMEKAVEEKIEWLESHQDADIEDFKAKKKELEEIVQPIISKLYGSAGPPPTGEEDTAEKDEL

Broadly, the Kd is the free concentration of one partner at which half of the binding sites on the other are occupied at equilibrium, for simple one-to-one binding. Read a high Kd as weaker binding. With `CC(C)[C@@H](NC(=O)[C@@H](CCCNC(=N)N)NC(=O)[C@H](NC(=O)[C@@H](CC(N)=O)NC(=O)[C@H](N)CO)[C@H](C)O)C(=O)N[C@H](C)C(=O)N1CCC[C@@H]1C(=O)O` [^SVAP], the “competitive inhibition between VAP peptides” value on GRP78 protein [1] is on record as “completely inhibit each other”. In addition, on GRP78 protein [2], the Kd amounted to 5.22 µM and the “Kd value (dissociation)” value came out at 0.02826 s⁻¹. Besides, the “residual percentage of intact polypeptide (degradation)” value (from here on “residual percentage”) in data set [3] is given as “hardly degraded”.
Consider `COc1cccc2c1C(=O)c1c(O)c3c(c(O)c1C2=O)C[C@@](O)(C(=O)CO)C[C@@H]3O[C@H]1C[C@H](N)[C@H](O)[C@H](C)O1` [DOX, doxorubicin], for which, in “FIGS. 25A-25B”, the “AUC0-6h” value stood at 7976 ± 1515 ng·h/mL, the “MRT0-6h” value came out at 1.836 ± 0.695 h and the “T1/2” value is 2.131 ± 0.646 h. The molecule further showed a mean survival time in the data set with intracranial U87 tumor (total dose of DOX 10 mg/Kg (high dose), tail vein, days 10, 13, 16, 19, 22) of 36 days.
Take SNTRVAP [^LVAP, reference compound]: on GRP78 protein [1], the “competitive inhibition between VAP peptides” value is “completely inhibit each other”. Further, the “Kd value (dissociation)” value at GRP78 protein [2] was 0.01898 s⁻¹. In addition, the “residual percentage” value in data set [3] is given as “completely degraded”.
For the molecule `CC(C)[C@@H](NC(=O)[C@@H](C)NC(=O)[C@H]1CCCN1)C(=O)N[C@H](CCCNC(=N)N)C(=O)N[C@@H](C(=O)N[C@H](CC(N)=O)C(=O)N[C@H](CO)C(=O)O)[C@H](C)O` [^DVAP], the “competitive inhibition between VAP peptides” value on GRP78 protein [1] is given as “completely inhibit each other”. The “Kd value (dissociation)” value on GRP78 protein [2] was determined as 0.02091 s⁻¹. Further, the “residual percentage” value in data set [3] is recorded as “hardly degraded”. The molecule also came in with a mean survival time in the data set on intracranial U87 tumor (^DVAP alone, amount contained in the high dose of ^DVAP-DOX) of 45.5 days.
